Drawing on patent US9073830B2 (Hyundai Pharm Co., Ltd., priority 2011, dated 2015), this text covers IC50 for 33 compounds.

The IC50 is the midpoint of a concentration-inhibition curve.

Test [1] has as its target T1, human 11β-HSD1 (Homo sapiens, UniProt P28845).
T1 construct: 100 ug/ml human/mouse liver microsomes; from tissue; host or cells: human liver microsomes
Put plainly: Enzyme activity analysis on human 11β-HSD1 (HTRF cortisol, liver microsomes). The format is biochemical. Particulars: first value of cell. Summed up: (§1)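 Cortisol generated by mouse or human liver microsome 11β-HSD1 during 2 h at 37° C., measured by HTRF competition (cryptate anti-cortisol antibody, d2-cortisol, 2 h room temperature) against a cortisol standard curve. IC50 from percent inhibition versus no-compound control.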
Background: In TR-FRET formats the signal depends on donor and acceptor labels being close together.

Test [2] addresses T2, mouse 11β-HSD1 (Mus musculus, UniProt P50172).
T2 construct: 100 ug/ml human/mouse liver microsomes; from tissue; host or cells: mouse liver microsomes
Put plainly: Enzyme activity analysis on mouse 11β-HSD1 (HTRF cortisol, liver microsomes). Particulars: second value of cell. The format is biochemical. Summed up: as §1

Each structure is given as a SMILES string.

T2 sequence (P50172 whole entry): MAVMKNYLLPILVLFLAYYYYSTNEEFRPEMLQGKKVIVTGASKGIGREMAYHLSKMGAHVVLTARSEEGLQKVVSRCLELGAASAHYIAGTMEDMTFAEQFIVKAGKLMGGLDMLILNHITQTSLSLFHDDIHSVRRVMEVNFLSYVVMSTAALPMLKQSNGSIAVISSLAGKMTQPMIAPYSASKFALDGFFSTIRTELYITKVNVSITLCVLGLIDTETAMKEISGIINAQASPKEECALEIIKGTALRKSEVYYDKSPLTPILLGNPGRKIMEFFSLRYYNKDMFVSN
T1 sequence (P28845 whole entry): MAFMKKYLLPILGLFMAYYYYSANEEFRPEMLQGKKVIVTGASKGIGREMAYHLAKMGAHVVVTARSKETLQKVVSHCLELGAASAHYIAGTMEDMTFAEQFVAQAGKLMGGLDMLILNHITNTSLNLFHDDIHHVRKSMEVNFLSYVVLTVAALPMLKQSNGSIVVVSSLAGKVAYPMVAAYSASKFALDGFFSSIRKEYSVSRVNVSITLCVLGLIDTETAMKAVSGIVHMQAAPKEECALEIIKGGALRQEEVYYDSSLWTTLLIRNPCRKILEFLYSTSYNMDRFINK

Consider `CNC(=O)C12CC3CC(C1)C(NC(=O)C(C)(C)NS(=O)(=O)c1ccccc1Cl)C(C3)C2` (stereo not drawn) [compound 237, 4-[2-(2-chloro-benzenesulfonylamino)-2-methyl-propionylamino]-adamantane-1-carboxylic acid methylamide], for which the IC50 in test [1] came out at 1.5 µM; in test [2] it was 0.437 µM.
In the case of `NC(=O)C12CC3CC(C1)C(NC(=O)C1(NS(=O)(=O)c4cccc(Cl)c4Cl)CC1)C(C3)C2` (stereo not drawn) [compound 136, N-4-(1-(2,3-dichlorophenylsulfonamido)cyclopropanecarboxyamido)adamantane-1-carboxyamide], the IC50 was found to be 0.009 µM in test [1] and 0.028 µM in test [2].
Take `CC(C)(NS(=O)(=O)c1cccc([N+](=O)[O-])c1)C(=O)NC1C2CC3CC1CC(C(N)=O)(C3)C2` (stereo not drawn) [compound 107, N-4-(2-(3-nitrophenylsulfonamido)-2-methylpropanamido)adamantane-1-carboxyamide]: the IC50 in test [1] worked out at 0.178 µM; in test [2] it was 0.563 µM.
As to `NC(=O)C12CC3CC(C1)C(NC(=O)C1(NS(=O)(=O)c4c(Cl)cccc4Cl)CCCCC1)C(C3)C2` (stereo not drawn) [compound 186, N-4-(1-(2,6-dichlorophenylsulfonamido)cyclohexanecarboxyamido)adamantane-1-carboxyamide], the IC50 was found to be 0.012 µM in test [1] and 0.005 µM in test [2].
On to `CC(C)(NS(=O)(=O)c1ccc([N+](=O)[O-])cc1)C(=O)NC1C2CC3CC(C2)CC1C3` (stereo not drawn) [compound 3, N-(adamantane-2-yl)-2-methyl-2-(4-nitrophenylsulfonamido)propanamide], for which the IC50 in test [1] stood at 1.33 µM; in test [2], 1.7 µM.
For `NC(=O)C12CC3CC(C1)C(NC(=O)C1(NS(=O)(=O)c4ccccc4Br)CC1)C(C3)C2` (stereo not drawn) [compound 131, N-4-(1-(2-bromophenylsulfonamido)cyclopropanecarboxyamido)adamantane-1-carboxyamide], in that order: 0.008 µM and 0.048 µM.
For `CC(C)(NS(=O)(=O)c1cccc(F)c1)C(=O)NC1C2CC3CC(C2)CC1C3` (stereo not drawn) [compound 30, N-(adamantane-2-yl)-2-methyl-2-(3-fluorophenylsulfonamido)propanamide], in that order: 0.192 µM and 0.462 µM.
For `CCN(C(C)(C)C(=O)NC1C2CC3CC1CC(C(N)=O)(C3)C2)S(=O)(=O)c1cccc(Cl)c1Cl` (stereo not drawn) [compound 212], in that order: 0.024 µM and 0.191 µM.
As for `CN(C(C)(C)C(=O)NC1C2CC3CC1CC(O)(C3)C2)S(=O)(=O)c1ccccc1[N+](=O)[O-]` (stereo not drawn) [compound 205, N-(5-hydroxyadamantane-2-yl)-2-(2-nitro-N-methylphenylsulfonamido)-2-methylpropan amide], the IC50 stood at 0.005 µM in test [1] and 0.068 µM in test [2].
As for `Cc1ccccc1S(=O)(=O)N(C)C(C)(C)C(=O)NC1C2CC3CC1CC(O)(C3)C2` (stereo not drawn) [compound 207, N-(5-hydroxyadamantane-2-yl)-2-(2-methyl-N-methylphenylsulfonamido)-2-methylpropanamide], the half-inhibitory concentration (IC50) in test [1] is 0.006 µM; in test [2], 0.107 µM.
With `CC(C)NC(=O)C12CC3CC(C1)C(NC(=O)C1(NS(=O)(=O)c4ccccc4Cl)CCC1)C(C3)C2` (stereo not drawn) [compound 236, 4-({1-[(2-chloro-benzenesulfonyl)-methyl-amino]-cyclobutanecarbonyl}-amino)-adamantane-1-carboxylic acid-isopropylamide], the IC50 in test [1] and in test [2] was > 2.5 µM each time.
Turning to `NC(=O)C12CC3CC(C1)C(NC(=O)C1(NS(=O)(=O)c4ccccc4Cl)CC1)C(C3)C2` (stereo not drawn) [compound 132, N-4-(1-(2-chlorophenylsulfonamido)cyclopropanecarboxyamido)adamantane-1-carboxyamide], the concentration for half-maximal inhibition (IC50) in test [1] was 0.037 µM; in test [2], 0.148 µM.
With `CC(C)NC(=O)C12CC3CC(C1)C(NC(=O)C(C)(C)NS(=O)(=O)c1ccccc1Cl)C(C3)C2` (stereo not drawn) [compound 235, 4-[2-(2-chloro-benzenesulfonylamino)-2-methyl-propionylamino]-adamantane-1-carboxylic acid isopropylamide], the IC50 in test [1] and in test [2] was > 2.5 µM in each case.
Take `CCN(C(C)(C)C(=O)NC1C2CC3CC1CC(C(N)=O)(C3)C2)S(=O)(=O)c1ccccc1[N+](=O)[O-]` (stereo not drawn) [compound 216]: the IC50 in test [1] was found to be 0.009 µM; in test [2], 0.974 µM.
Take `CN(C(C)(C)C(=O)NC1C2CC3CC1CC(C(N)=O)(C3)C2)S(=O)(=O)c1ccccc1Cl` (stereo not drawn) [compound 190, N-4-(2-(2-chloro-N-methylphenylsulfonamido)-2-methylpropanamido)adamantane-1-carboxyamide]: the figures for the IC50 in test [1] and in test [2] were 0.002 µM and 0.005 µM, respectively.
Regarding `CC(C)(NS(=O)(=O)c1ccc(-c2ccccc2)cc1)C(=O)NC1C2CC3CC(C2)CC1C3` (stereo not drawn) [compound 42, N-(adamantane-2-yl)-2-methyl-2-([1,1-biphenyl]-4-ylsulfonamido)propanamide], the results for the IC50 in test [1] and in test [2] were 1.8 µM and 1.7 µM, respectively.
For `NC(=O)C12CC3CC(C1)C(NC(=O)C1(NS(=O)(=O)c4cccc5cccnc45)CCCC1)C(C3)C2` (stereo not drawn) [compound 168, N-4-(1-(quinoline-8-sulfonamido)cyclopentanecarboxyamido)adamantane-1-carboxyamide], in that order: 0.022 µM and 0.007 µM.
With `CC(C)(NS(=O)(=O)c1ccc(Cl)c([N+](=O)[O-])c1)C(=O)NC1C2CC3CC(C2)CC1C3` (stereo not drawn) [compound 61, N-(adamantane-2-yl)-2-methyl-2-(4-chloro-3-nitrophenylsulfonamido)propanamide], the IC50 in test [1] and in test [2] was > 2.5 µM throughout.
For `NC(=O)C12CC3CC(C1)C(NC(=O)C1(NS(=O)(=O)c4cc(Cl)c(Cl)cc4Cl)CCC1)C(C3)C2` (stereo not drawn) [compound 161, N-4-(1-(2,4,5-trichlorophenylsulfonamido)cyclobutanecarboxyamido)adamantane-1-carboxyamide], the figures for the IC50 in test [1] and in test [2] were 0.052 µM and 0.428 µM, respectively.
For the compound `NC(=O)C12CC3CC(C1)C(NC(=O)C1(NS(=O)(=O)c4ccc(Br)cc4Cl)CCC1)C(C3)C2` (stereo not drawn) [compound 162, N-4-(1-(2-chloro-4-bromophenylsulfonamido)cyclobutanecarboxyamido)adamantane-1-carboxyamide], the half-inhibitory concentration (IC50) stood at 0.04 µM in test [1] and 0.453 µM in test [2].
As to `O=C(NC1C2CC3CC(C2)CC1C3)C1(NS(=O)(=O)c2ccccc2)CCC1` (stereo not drawn) [compound 139], the results for the IC50 in test [1] and in test [2] were 0.547 µM and 0.178 µM, respectively.
Consider `Cc1cc(C)cc(S(=O)(=O)NC(C)(C)C(=O)NC2C3CC4CC(C3)CC2C4)c1` (stereo not drawn) [compound 59, N-(adamantane-2-yl)-2-methyl-2-(3,5-dimethylphenylsulfonamido)propanamide], for which the IC50 in test [1] amounted to 0.331 µM; in test [2], 1.21 µM.
As for `CN(C(C)(C)C(=O)NC1C2CC3CC1CC(O)(C3)C2)S(=O)(=O)c1ccccc1Br` (stereo not drawn) [compound 206, N-(5-hydroxyadamantane-2-yl)-2-(2-bromo-N-methylphenylsulfonamido)-2-methylpropanamide], the IC50 in test [1] worked out at 0.005 µM; in test [2] it was 0.041 µM.
Turning to `COc1cc([N+](=O)[O-])ccc1S(=O)(=O)NC(C)(C)C(=O)NC1C2CC3CC(C2)CC1C3` (stereo not drawn) [compound 60, N-(adamantane-2-yl)-2-methyl-2-(4-nitro-2-methoxyphenylsulfonamido)propanamide], the IC50 was 0.135 µM in test [1] and 0.644 µM in test [2].
With `CNC(=O)C12CC3CC(C1)C(NC(=O)C1(NS(=O)(=O)c4ccccc4Cl)CCC1)C(C3)C2` (stereo not drawn) [compound 238], the IC50 in test [1] and in test [2] was > 2.5 µM throughout.
Turning to `CC(C)(NS(=O)(=O)c1cc(F)ccc1F)C(=O)NC1C2CC3CC1CC(C(N)=O)(C3)C2` (stereo not drawn) [compound 120], the results for the IC50 in test [1] and in test [2] were 0.051 µM and 0.453 µM, respectively.
As for `CC(C)(NS(=O)(=O)c1ccc(Cl)cc1Cl)C(=O)NC1C2CC3CC1CC(O)(C3)C2` (stereo not drawn) [compound 81, N-(5-hydroxyadamantane-2-yl)-2-methyl-2-(2,4-dichlorophenylsulfonamido)propanamide], the results for the IC50 in test [1] and in test [2] were 0.03 µM and 0.221 µM, respectively.
With `CCN(C(C)(C)C(=O)NC1C2CC3CC1CC(C(N)=O)(C3)C2)S(=O)(=O)c1ccccc1C` (stereo not drawn) [compound 209, N-4-(2-(2-methyl-N-ethylphenylsulfonamido)-2-methylpropanamido)adamantane-1-carboxyamide], the IC50 in test [1] is 0.008 µM; in test [2], 0.182 µM.
`CC(C)(NS(=O)(=O)c1cccc(Cl)c1Cl)C(=O)NC1C2CC3CC1CC(O)(C3)C2` (stereo not drawn) [compound 73, N-(5-hydroxyadamantane-2-yl)-2-methyl-2-(2,3-dichlorophenylsulfonamido)propanamide]: the results for the IC50 in test [1] and in test [2] were 0.017 µM and 0.042 µM, respectively.
For `CC(C)(NS(=O)(=O)c1ccccc1C(F)(F)F)C(=O)NC1C2CC3CC1CC(O)(C3)C2` (stereo not drawn) [compound 72, N-(5-hydroxyadamantane-2-yl)-2-methyl-2-(2-trifluoromethylphenylsulfonamido)propan amide], in that order: 0.111 µM and 0.138 µM.
With `Cc1ccccc1S(=O)(=O)N(C)C(C)(C)C(=O)NC1C2CC3CC1CC(C(N)=O)(C3)C2` (stereo not drawn) [compound 196], the IC50 in test [1] turned out to be 0.003 µM; in test [2], 0.005 µM.
For `CC(C)(NS(=O)(=O)c1ccccc1N)C(=O)NC1C2CC3CC1CC(C(N)=O)(C3)C2` (stereo not drawn) [compound 219, N-4-(2-(2-aminophenylsulfonamido)-2-methylpropanamido)adamantane-1-carboxyamide], in that order: 0.085 µM and 0.117 µM.
Take `COc1ccc(S(=O)(=O)NC(C)(C)C(=O)NC2C3CC4CC2CC(C(N)=O)(C4)C3)c(OC)c1` (stereo not drawn) [compound 129]: the IC50 in test [1] was 0.096 µM; in test [2], 0.589 µM.
